In the supplement of paper PMC13380429:

Legend:
Settings in all cases: 72 h
U2OS [1] = test: cell viability relative to DMSO; higher = less toxic
HepG2 [2] = test: as above
Calu-3 [3] = test: as above
Caco-2 [4] = test: as above
Vero E6 [5] = test: as above
U2OS [6] = test: drug sensitivity score (DSS) for viability; higher = more toxic; extreme values may be limits of the assay
HepG2 [7] = test: as above
Calu-3 [8] = test: as above
Caco-2 [9] = test: as above
Vero E6 [10] = test: as above
HepG2 [11] = test: relative viability EC50 (midpoint between 100% and the lowest measured viability); higher = less toxic
Calu-3 [12] = test: as above
Vero E6 [13] = test: as above
U2OS [14] = test: as above
Caco-2 [15] = test: as above

Row | SMILES | cell viability (U2OS [1]; 1 nM) [%] | cell viability (U2OS [1]; 10 nM) [%] | cell viability (U2OS [1]; 100 nM) [%] | cell viability (U2OS [1]; 1000 nM) [%] | cell viability (U2OS [1]; 10000 nM) [%] | cell viability (HepG2 [2]; 1 nM) [%] | cell viability (HepG2 [2]; 10 nM) [%] | cell viability (HepG2 [2]; 100 nM) [%] | cell viability (HepG2 [2]; 1000 nM) [%] | cell viability (HepG2 [2]; 10000 nM) [%] | cell viability (Calu-3 [3]; 1 nM) [%] | cell viability (Calu-3 [3]; 10 nM) [%] | cell viability (Calu-3 [3]; 100 nM) [%] | cell viability (Calu-3 [3]; 1000 nM) [%] | cell viability (Calu-3 [3]; 10000 nM) [%] | cell viability (Caco-2 [4]; 1 nM) [%] | cell viability (Caco-2 [4]; 10 nM) [%] | cell viability (Caco-2 [4]; 100 nM) [%] | cell viability (Caco-2 [4]; 1000 nM) [%] | cell viability (Caco-2 [4]; 10000 nM) [%] | cell viability (Vero E6 [5]; 1 nM) [%] | cell viability (Vero E6 [5]; 10 nM) [%] | cell viability (Vero E6 [5]; 100 nM) [%] | cell viability (Vero E6 [5]; 1000 nM) [%] | cell viability (Vero E6 [5]; 10000 nM) [%] | drug sensitivity score (U2OS [6]) | drug sensitivity score (HepG2 [7]) | drug sensitivity score (Calu-3 [8]) | drug sensitivity score (Caco-2 [9]) | drug sensitivity score (Vero E6 [10]) | relative viability EC50 (HepG2 [11]) [µM] | relative viability EC50 (Calu-3 [12]) [µM] | relative viability EC50 (Vero E6 [13]) [µM] | relative viability EC50 (U2OS [14]) [µM] | relative viability EC50 (Caco-2 [15]) [µM]
1 | Cc1cc(-c2nc(-c3ccc(OC(F)(F)F)cc3)no2)nn1Cc1ccnc(N2CCN(C3CC3)CC2)c1 [BAY-87-2243] | 97.3 | 95.3 | 81.5 | 73.5 | 66.6 | 93.1 | 50.4 | 20.8 | 17.8 | 18.7 | 98.5 | 94.4 | 92.9 | 87.7 | 92 | 99.4 | 99 | 73.7 | 74.7 | 71.1 | 95.8 | 98.8 | 94.3 | 91 | 85.1 | 6.5 | 31.4 | 0.2 | 8 | 0.4 | 0.0071 | > 10 | > 10 | – | –
2 | O=C1c2ccccc2CCC1CNCCc1ccc(O)cc1 (stereo unspecified) [BE-2254] | 95.8 | 97.3 | 100 | 99.3 | 95.5 | 114 | 96 | 96.7 | 103 | 39.1 | 106 | 93.3 | 95.7 | 101 | 96.2 | 104 | 100 | 99.5 | 104 | 98 | – | – | – | – | – | 0 | 3 | 0 | 0 | – | 3.45 | > 10 | – | > 10 | > 10
3 | Cc1ccccc1C(=O)Nc1ccc(C(=O)N2CCCC(N(C)C)c3ccccc32)cc1 (stereo unspecified) [mozavaptan] | 98.1 | 102 | 94.5 | 98 | 48.8 | 98.2 | 99.5 | 93.3 | 99.5 | 44.3 | 94.9 | 109 | 95.6 | 105 | 64.9 | 97 | 99.8 | 88.8 | 76.6 | 70.2 | 100 | 103 | 98.3 | 98.4 | 51.6 | 3 | 3.1 | 1.4 | 4.7 | 2.7 | 3.1 | – | – | 2.87 | –
4 | CNC(=O)[C@H]1O[C@@H](n2cnc3c(NCc4cccc(I)c4)ncnc32)[C@H](O)[C@@H]1O [IB-MECA] | 101 | 105 | 102 | 106 | 95.8 | 107 | 68.7 | 98.3 | 68.8 | 88.8 | 96.3 | 98.3 | 93.4 | 109 | 85.3 | 112 | 96.2 | 99.8 | 105 | 93.3 | 103 | 97.1 | 99.8 | 97 | 102 | 0 | 3.3 | 0.1 | 0 | 0 | – | > 10 | > 10 | > 10 | > 10
5 | OCCn1cc(-c2ccc3c(c2)CC/C3=N\O)c(-c2ccncc2)n1 [GDC-0879] | – | – | – | – | – | 90.6 | 100 | 87.2 | 74.3 | 25 | 102 | 94.5 | 95.2 | 107 | 104 | 98.8 | 89.4 | 94.1 | 101 | 104 | – | – | – | – | – | – | 7 | 0 | 0 | – | 1.45 | > 10 | – | – | > 10
6 | C[C@H](N)C(=O)N[C@@]1(C(=O)O)C[C@@H](Sc2nnc[nH]2)[C@H]2[C@H](C(=O)O)[C@H]21 | 105 | 96.9 | 105 | 100 | 104 | 101 | 94.7 | 99.6 | 110 | 91 | 102 | 92.6 | 96.1 | 114 | 110 | 108 | 100 | 103 | 98.9 | 101 | – | – | – | – | – | 0 | 0 | 0 | 0 | – | > 10 | > 10 | – | > 10 | > 10
7 | Cc1cc(C2CCCCC2)n(O)c(=O)c1 [ciclopirox] | 105 | 95.2 | 101 | 87.9 | 52.1 | 91.8 | 96.4 | 95.9 | 85.9 | 27.2 | 108 | 109 | 94.3 | 95.7 | 44.8 | 99.9 | 90.1 | 96 | 77 | 38.7 | 94.6 | 100 | 90.1 | 89.6 | 63.4 | 4.4 | 6.3 | 3.6 | 6.1 | 2.7 | 1.76 | 2.52 | – | – | 1.31
8 | CCCCCCCC/C=C/C(=O)O [trans-2-undecenoic-acid] | 101 | 97 | 102 | 100 | 99.5 | 106 | 104 | 101 | 105 | 95.8 | 104 | 95.1 | 96.4 | 104 | 108 | 109 | 105 | 108 | 93.5 | 98.9 | – | – | – | – | – | 0 | 0 | 0 | 0 | – | > 10 | > 10 | – | > 10 | > 10
9 | FC(F)(F)Oc1ccc2nc(-c3ccc(OCCOCCOc4ccc(-c5nc6ccc(OC(F)(F)F)cc6[nH]5)nc4)cn3)[nH]c2c1 [AI-10-49] | 98.5 | 98.6 | 101 | 90.5 | 80.7 | 94.7 | 93.6 | 103 | 74.6 | 18.7 | 109 | 95.7 | 98.2 | 98.3 | 93.3 | 95.2 | 95.4 | 90.9 | 82 | 56.7 | 102 | 97 | 93.3 | 72.8 | 56.2 | 1.5 | 8.2 | 0 | 4.2 | 5.6 | 1.37 | > 10 | – | > 10 | –
10 | Cc1cnc(NC(=O)Nc2cc(Br)c(C)cc2OC[C@@H]2CNCCO2)cn1 | 100 | 99.2 | 98 | 62.2 | 4.8 | 106 | 104 | 97.9 | 59.1 | 33.7 | 90.7 | 106 | 102 | 76.9 | 63 | 102 | 94.7 | 96.9 | 87.5 | 37.8 | 101 | 105 | 102 | 97.2 | 71.1 | 10.2 | 8.6 | 4.5 | 5.4 | 1.7 | 0.764 | – | – | 1.2 | 1.73
11 | N#CCNC(=O)c1ccc(-c2ccnc(Nc3ccc(N4CCOCC4)cc3)n2)cc1 [cyt387] | 99.9 | 107 | 99.4 | 95.6 | 36.6 | 109 | 105 | 101 | 88.7 | 21.6 | – | – | – | – | – | 99.5 | 103 | 101 | 103 | 61.8 | 102 | 100 | 96.6 | 94.7 | 52.5 | 4.1 | 6.2 | – | 1.6 | 3.4 | 2.02 | – | – | 2.6 | –
12 | Cc1ncc(C)n2nc([C@@H]3C[C@H]3c3nc4c5cccnc5ccn4c3C)nc12 [PDE10-IN-1] | 98.6 | 95.5 | 100 | 95.9 | 97.9 | 98.7 | 105 | 96.1 | 115 | 98.1 | 106 | 98 | 105 | 114 | 117 | – | – | – | – | – | 93.5 | 98.2 | 99.6 | 99.3 | 105 | 0 | 0 | 0 | – | 0 | > 10 | > 10 | > 10 | > 10 | –
13 | COCCOc1cnc2ccn([C@H](C)c3nnc4c(F)cc(-c5cnn(C)c5)cn34)c(=O)c2c1 [AMG-337] | 93 | 99.1 | 102 | 98 | 100 | 100 | 102 | 99.2 | 91.5 | 93.5 | 101 | 89 | 98.4 | 114 | 95.2 | 104 | 103 | 92.9 | 101 | 97.2 | – | – | – | – | – | 0 | 0 | 0 | 0 | – | > 10 | > 10 | – | > 10 | > 10
14 | Cn1c(Nc2ccc(C(F)(F)F)cc2)nc2cc(Oc3ccnc(-c4ncc(C(F)(F)F)[nH]4)c3)ccc21 [RAF265] | 94.9 | 102 | 95.3 | 87.3 | 46.5 | 92.1 | 94.7 | 80 | 44.5 | 13.2 | 98 | 91.2 | 94 | 70.9 | 62.2 | 100 | 98.3 | 81.8 | 66.3 | 28.8 | 102 | 99.7 | 99.8 | 77.9 | 51.6 | 4.9 | 13.1 | 5.6 | 8.8 | 5.4 | 0.435 | – | – | 1.59 | 0.721
15 | C#CC[C@H](c1nc2cc(Cl)ccc2c(=O)n1Nc1ccccc1)N(CCCN)C(=O)c1cccc(Cl)c1F [ARQ-621] | 103 | 98.9 | 101 | 93.4 | 42.3 | 93.7 | 100 | 94.5 | 62.2 | 26.6 | 105 | 101 | 104 | 86.7 | 78 | 101 | 96.6 | 93.6 | 81.7 | 73 | 102 | 100 | 96.2 | 101 | 54.9 | 4.2 | 8.5 | 2.1 | 3.1 | 2.3 | 0.929 | > 10 | – | 2.23 | –
